Legend:
CSK = biological target: T1, CSK (Homo sapiens, UniProt P41240); assay: Kinase inhibition profiling CSK (ELISA); assay type: biochemical
T1 construct: His (N, cleaved yes); made in house; host or cells: baculovirus expression system
Protocol: (§1) Each test compound was weighed and dissolved in DMSO to make 1 mM stock solution. The stock solution was diluted with DMSO to achieve 20 μM. The compound solution was diluted with the assay buffer to achieve 0.8 μM.

EphB4 = biological target: T2, EphB4 (Homo sapiens, UniProt P54760); assay: Kinase inhibition profiling EphB4 (ELISA); assay type: biochemical
T2 construct: Cytoplasmic domain of human EphB4 [577-987 amino; made in house; host or cells: baculovirus expression system
T2 sequence (P54760 577-987): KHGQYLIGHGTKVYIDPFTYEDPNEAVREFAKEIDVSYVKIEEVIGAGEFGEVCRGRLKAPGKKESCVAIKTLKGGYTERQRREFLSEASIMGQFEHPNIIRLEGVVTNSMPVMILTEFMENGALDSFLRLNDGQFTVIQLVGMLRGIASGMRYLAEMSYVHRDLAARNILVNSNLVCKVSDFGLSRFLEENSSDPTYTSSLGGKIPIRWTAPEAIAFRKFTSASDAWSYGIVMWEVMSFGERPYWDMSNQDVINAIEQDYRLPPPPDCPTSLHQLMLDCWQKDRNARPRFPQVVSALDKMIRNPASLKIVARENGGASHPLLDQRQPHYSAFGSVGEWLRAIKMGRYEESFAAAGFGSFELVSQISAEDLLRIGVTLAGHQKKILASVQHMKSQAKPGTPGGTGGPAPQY
Protocol: as §1

FGFR1 = biological target: T3, FGFR1 (Homo sapiens, UniProt P11362); assay: Kinase inhibition profiling FGFR1 (ELISA); assay type: biochemical
T3 construct: Cytoplasmic domain of human FGFR1 [396-820 amino; made in house; host or cells: baculovirus expression system
T3 sequence (P11362 398-822): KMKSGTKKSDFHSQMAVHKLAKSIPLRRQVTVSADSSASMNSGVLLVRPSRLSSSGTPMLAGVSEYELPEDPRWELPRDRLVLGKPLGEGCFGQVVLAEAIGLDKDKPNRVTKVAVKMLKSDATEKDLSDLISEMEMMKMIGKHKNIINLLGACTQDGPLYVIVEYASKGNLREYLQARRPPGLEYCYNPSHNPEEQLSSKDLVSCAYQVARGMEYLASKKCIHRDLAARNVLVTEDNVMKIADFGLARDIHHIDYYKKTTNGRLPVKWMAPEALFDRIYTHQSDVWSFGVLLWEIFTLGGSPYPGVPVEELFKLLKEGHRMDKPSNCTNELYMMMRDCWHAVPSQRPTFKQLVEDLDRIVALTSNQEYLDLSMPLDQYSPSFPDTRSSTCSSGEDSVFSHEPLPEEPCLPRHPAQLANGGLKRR
Protocol: as §1

RON = biological target: T4, RON (Homo sapiens, UniProt Q04912); assay: Kinase inhibition profiling RON (ELISA); assay type: biochemical
T4 construct: Cytoplasmic domain of human RON [979-1400 amino; made in house; host or cells: baculovirus expression system
T4 sequence (Q04912 979-1400): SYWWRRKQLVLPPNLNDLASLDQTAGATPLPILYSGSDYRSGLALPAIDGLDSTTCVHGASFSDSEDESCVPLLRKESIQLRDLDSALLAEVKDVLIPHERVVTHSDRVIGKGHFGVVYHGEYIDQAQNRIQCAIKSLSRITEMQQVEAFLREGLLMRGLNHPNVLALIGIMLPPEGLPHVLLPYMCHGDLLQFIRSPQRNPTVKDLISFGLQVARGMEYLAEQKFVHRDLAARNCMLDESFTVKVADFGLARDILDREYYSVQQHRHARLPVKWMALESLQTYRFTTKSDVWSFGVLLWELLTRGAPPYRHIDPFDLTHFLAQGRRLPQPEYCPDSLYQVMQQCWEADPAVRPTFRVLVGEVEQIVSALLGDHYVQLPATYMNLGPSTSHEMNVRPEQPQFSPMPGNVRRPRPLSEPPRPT
Protocol: as §1

FGR = biological target: T5, FGR (Homo sapiens, UniProt P09769); assay: Kinase inhibition profiling FGR (ELISA); assay type: biochemical; further: ATP 5 µM
T5 construct: His (N, cleaved yes); made in house; host or cells: baculovirus expression system
T5 sequence (P09769 whole entry): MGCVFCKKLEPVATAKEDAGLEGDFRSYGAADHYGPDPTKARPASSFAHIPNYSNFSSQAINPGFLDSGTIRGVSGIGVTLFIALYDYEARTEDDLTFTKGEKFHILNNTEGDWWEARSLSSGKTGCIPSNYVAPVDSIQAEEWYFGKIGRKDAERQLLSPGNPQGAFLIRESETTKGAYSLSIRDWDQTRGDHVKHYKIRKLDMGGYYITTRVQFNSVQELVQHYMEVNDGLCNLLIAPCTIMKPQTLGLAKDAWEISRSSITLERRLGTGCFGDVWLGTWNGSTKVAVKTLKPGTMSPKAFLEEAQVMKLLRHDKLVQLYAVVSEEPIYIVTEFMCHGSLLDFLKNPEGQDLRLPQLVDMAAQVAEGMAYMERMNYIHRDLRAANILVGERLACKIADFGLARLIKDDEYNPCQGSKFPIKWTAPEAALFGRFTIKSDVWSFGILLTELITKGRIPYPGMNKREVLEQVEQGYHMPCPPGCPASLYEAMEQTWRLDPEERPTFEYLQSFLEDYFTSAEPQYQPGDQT
Protocol: (§2) In particular, the target kinases were Tyrosine kinases and Serine/Threonine kinases.
as §1

SRM = biological target: T6, SRM (Homo sapiens, UniProt Q9H3Y6); assay: Kinase inhibition profiling SRM (ELISA); assay type: biochemical
T6 construct: Kinase domain (KD) of human SRM [215-489 amino acids; made in house; host or cells: baculovirus expression system
T6 sequence (Q9H3Y6 215-488 limits assumed): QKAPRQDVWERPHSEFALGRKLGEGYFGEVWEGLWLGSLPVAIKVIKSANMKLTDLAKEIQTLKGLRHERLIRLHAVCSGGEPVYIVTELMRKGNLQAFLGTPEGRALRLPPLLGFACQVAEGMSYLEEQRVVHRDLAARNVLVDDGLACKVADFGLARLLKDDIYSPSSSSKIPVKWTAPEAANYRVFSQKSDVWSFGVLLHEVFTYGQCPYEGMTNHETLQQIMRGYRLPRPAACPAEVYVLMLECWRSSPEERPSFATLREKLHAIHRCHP
Protocol: as §1

TrkB = biological target: T7, TrkB (Homo sapiens, UniProt Q16620); assay: Kinase inhibition profiling TrkB (ELISA); assay type: biochemical
T7 construct: Cytoplasmic domain of human TRKB [456-822 amino; made in house; host or cells: baculovirus expression system
T7 sequence (Q16620 456-822): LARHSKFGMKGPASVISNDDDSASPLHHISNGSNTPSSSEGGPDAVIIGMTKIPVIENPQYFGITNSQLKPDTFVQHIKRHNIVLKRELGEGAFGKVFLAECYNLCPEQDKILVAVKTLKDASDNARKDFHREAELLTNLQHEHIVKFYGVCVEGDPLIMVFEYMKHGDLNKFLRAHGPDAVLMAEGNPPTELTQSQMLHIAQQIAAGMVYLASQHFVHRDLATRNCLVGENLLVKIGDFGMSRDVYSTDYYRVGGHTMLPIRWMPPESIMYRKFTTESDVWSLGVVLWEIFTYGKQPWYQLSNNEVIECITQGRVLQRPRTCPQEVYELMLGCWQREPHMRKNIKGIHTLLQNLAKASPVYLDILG
Protocol: as §2, §1

PKCα = biological target: T8, PKCα (Homo sapiens, UniProt P17252); assay: Kinase inhibition profiling PKCα (IMAP); assay type: biochemical
T8 construct: made in house; host or cells: baculovirus expression system
Protocol: as §1

CDK2/cyclinA = biological target: T9, CDK2/cyclinA (Homo sapiens, UniProt P24941); assay: Kinase inhibition profiling CDK2/cyclinA (IMAP); assay type: biochemical
T9 construct: His (N); made in house; host or cells: baculovirus expression system
Protocol: as §1

JNK2 = biological target: T10, JNK2 (Homo sapiens, UniProt P45984); assay: Kinase inhibition profiling JNK2 (ELISA); assay type: biochemical; further: ATP 5 µM
T10 construct: Human JNK2 containing 424 amino acids was expressed; His (C); made in house; host or cells: E. coli
T10 sequence (P45984 whole entry): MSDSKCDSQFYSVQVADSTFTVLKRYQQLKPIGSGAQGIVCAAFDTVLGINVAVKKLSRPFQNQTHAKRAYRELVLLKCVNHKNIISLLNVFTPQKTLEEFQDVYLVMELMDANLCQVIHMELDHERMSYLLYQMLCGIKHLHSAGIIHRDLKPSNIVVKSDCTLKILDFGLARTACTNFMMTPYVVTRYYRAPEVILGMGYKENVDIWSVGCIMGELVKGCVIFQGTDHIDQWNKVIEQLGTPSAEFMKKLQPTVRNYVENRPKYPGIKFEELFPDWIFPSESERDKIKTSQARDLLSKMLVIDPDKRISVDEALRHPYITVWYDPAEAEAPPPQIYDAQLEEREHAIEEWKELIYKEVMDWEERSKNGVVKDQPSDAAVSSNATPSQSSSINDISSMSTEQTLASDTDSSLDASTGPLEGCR
Protocol: as §1

p38β = assay: Kinase inhibition profiling p38β (IMAP); assay type: biochemical, human; details: K-252a 200 nM, ATP 10 μM
Protocol: as §1

IRAK4 = biological target: T11, IRAK4 (Homo sapiens, UniProt Q9NWZ3); assay: Kinase inhibition profiling IRAK4 (IMAP); assay type: biochemical; further: ATP 80 µM
T11 construct: Kinase domain (KD) of Human IRAK4 [172-460 amino; GST (N); made in house; host or cells: baculovirus expression system
T11 sequence (Q9NWZ3 172-460): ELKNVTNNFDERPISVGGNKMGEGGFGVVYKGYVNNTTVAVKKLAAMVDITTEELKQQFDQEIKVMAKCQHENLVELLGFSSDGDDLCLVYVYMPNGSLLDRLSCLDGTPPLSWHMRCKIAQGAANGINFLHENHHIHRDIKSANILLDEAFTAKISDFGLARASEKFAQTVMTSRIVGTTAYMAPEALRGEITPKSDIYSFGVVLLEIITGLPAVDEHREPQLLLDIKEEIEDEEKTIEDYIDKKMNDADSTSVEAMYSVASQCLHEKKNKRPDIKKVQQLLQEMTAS
Protocol: as §1

[1] = test system: bovine aorta smooth muscle cells (BASMC); assay: Chemotaxis assay, HMGB1-induced migration (modified Boyden chambers); assay type: cell-based; details: K-252a 3, 10, 30, 100 nM; HMGB-1 25 ng/ml; overnight migration
Protocol: Chemotaxis assays were performed using a well known and validated protocol (1). Modified Boyden chambers were used with filters having 5-8 μm pore size and treated with collagen I (100 μg/ml in 0.5 M acetic acid) and fibronectin (10 μg/ml, Roche). BASMC (bovine aorta smooth muscle cells) were cultured in serum-free DMEM and a sample of 20,000-40,000 cells was added to the upper well of a Boyden chamber. […] Overnight cell migration was allowed at 37+/−0.5° C., then cells were scraped off and filters were fixed in methanol and stained in a solution of 10% crystal violet in 20% methanol. All experiments were performed at least twice in triplicate. […] Random cell migration, i.e. migration in the absence of chemoattractant, was given the arbitrary value of 100%. Statistical analysis was performed using Student's t test for pairwise comparisons of treatment, or an ANOVA model for the evaluation of treatments with increasing concentrations of a reagent.

HMGB1 = biological target: T12, HMGB1 (Homo sapiens, UniProt P09429); assay: Protein binding experiments by circular dichroism (CD); details: assuming 1:1 stoichiometry binding
T12 construct: host or cells: bacteria (inferred from the mention of bacterial contaminants)
T12 sequence (P09429 whole entry, species assumed): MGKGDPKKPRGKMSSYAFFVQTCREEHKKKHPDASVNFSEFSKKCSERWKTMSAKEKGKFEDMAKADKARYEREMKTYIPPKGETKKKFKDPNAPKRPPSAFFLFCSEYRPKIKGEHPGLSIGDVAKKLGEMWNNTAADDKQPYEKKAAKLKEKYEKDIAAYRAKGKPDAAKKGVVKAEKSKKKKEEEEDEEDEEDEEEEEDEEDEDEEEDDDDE
Source text: All CD spectra were collected on a Jasco J710 spectropolarimeter equipped with a NesLab RTE111 thermal controller unity, using a quartz cylindrical cuvette with a 1 cm path length (Jasco). A scan speed of 20 nm/min, a bandwidth of o 1 nm, and a resolution of 1 nm was always used.
The spectra are heavily disturbed more than likely due to DMF.

T1 sequence (P41240 whole entry): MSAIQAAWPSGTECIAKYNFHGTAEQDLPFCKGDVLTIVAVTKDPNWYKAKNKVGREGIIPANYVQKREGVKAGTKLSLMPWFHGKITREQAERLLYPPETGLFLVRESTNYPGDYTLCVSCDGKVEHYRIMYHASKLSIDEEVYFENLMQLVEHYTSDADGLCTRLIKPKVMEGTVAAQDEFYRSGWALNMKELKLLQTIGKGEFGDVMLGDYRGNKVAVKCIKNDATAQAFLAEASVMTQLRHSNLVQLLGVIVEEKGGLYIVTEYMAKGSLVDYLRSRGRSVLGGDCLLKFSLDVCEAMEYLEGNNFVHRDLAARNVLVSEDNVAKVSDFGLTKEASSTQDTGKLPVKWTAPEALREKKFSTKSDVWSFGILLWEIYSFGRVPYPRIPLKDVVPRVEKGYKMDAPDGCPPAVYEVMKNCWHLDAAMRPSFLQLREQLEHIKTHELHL

COC(=O)[C@]1(O)CC2O[C@@]1(C)n1c3ccccc3c3c4c(c5c6ccccc6n2c5c31)C(=O)NC4 [K-252a]
inhibition at 0.2 µM (CSK): 43%
inhibition at 0.2 µM (EphB4): 13.3%
inhibition at 0.2 µM (FGFR1): 57.9%
inhibition at 0.2 µM (RON): 5.2%
inhibition at 0.2 µM (FGR): 85.6%
inhibition at 0.2 µM (SRM): 0.4%
inhibition at 0.2 µM (TrkB): 98.2%
inhibition at 0.2 µM (PKCα): 64.4%
inhibition at 0.2 µM (CDK2/cyclinA): 75.5%
inhibition at 0.2 µM (JNK2): 91.4%
% Inhibition (p38β): −0.2%
inhibition at 0.2 µM (IRAK4): 51.9%
HMGB1-induced BASMC cell migration [1]: actively and concentration-dependently (in a nanomolar range) antagonizes HMGB1-induced BASMC cell migration
Kd (HMGB1): ~2000 nM

Source: patent publication US20090191253A2 (Creabilis Therapeutics S.P.A., priority 2005, published 2009)
